For one assay, the target named is T1, BTK (Homo sapiens, UniProt Q06187).
T1 construct: endogenous in cells; host or cells: TMD-8 cells
The assay is described as follows: BTK degradation in TMD-8 cells (HTRF assay). The class given is cell-based. Conditions: 6 h treatment, HTRF BTK degradation IC50 (DC50). As to the method: TMD-8 cells were treated with compounds diluted in 0.2% DMSO, dilution was done according to the following protocol: (1) making 500×stock solution in DMSO from 1 mM by 6-fold dilution, total 8 doses were included; (2) making 2×solution in cell culture medium by transferring 0.5 μl 500×stock solution into 125 μl medium; (3) adding 15 μl of 2×solution to cells for incubation of 6 h.
After 6 h treatment, 10 μl 4×lysis buffer was added to each well; the plate was sealed and incubated for 30 min at room temperature on a plate shaker; Once the cells was lysed, 16 μL of cell lysate were transferred to a PE 384-well HTRF detection plate; 4 μL of pre-mixed HTRF antibodies were added to each well; the plate was covered with a plate sealer, and then spinned at 1000 rpm for 1 min, then incubated overnight at room temperature; the results were read on BMG PheraStar with HTRF protocol (337 nm-665 nm-620 nm).
(§1) The IC50 (DC50) value of a compound can be obtained by fitting the following equation Y=Bottom+(TOP−Bottom)/(1+((IC50/X)^hillslope)) wherein, X and Y are known values, and IC50, Hillslope, Top and Bottom are the parameters obtained by fitting with software. Y is the inhibition percentage (calculated from the equation), X is the concentration of the compound; IC50 is the concentration of the compound when the 50% inhibition is reached. The smaller the IC50 value is, the stronger the inhibitory ability of the compound is. Vice versa, the higher the IC50 value is, the weaker the ability the inhibitory ability of the compound is; Hillslope represents the slope of the fitted curve, generally around 1*; Bottom represents the minimum value of the curve obtained by data fitting, which is generally 0%±20%; Top represents the maximum value of the curve obtained by data fitting, which is generally 100%±20%. The experimental data were fitted by calculating and analyzing with Dotmatics data analysis software. HEK-293 Cell Treatment

A further assay deals with HEK-293 cells. The assay is described as follows: HEK-293 cytotoxicity detection (CellTiter-Glo). The class given is cell-based. Conditions: Homo sapiens, 72 h incubation, read-out: HEK293.
Text: as §1
HEK-293 cells were treated with compounds diluted in 0.2% DMSO, dilution was done according to the following protocol: (1) making 500×stock solution in DMSO from 5 mM by 4-fold dilution, total 8 doses were included; (2) making 2×solution in cell culture medium by transferring 0.5 ul 500×stock solution into 125 ul medium; (3) adding 50 ul of 2×solution to cells for incubation of 72 h.
25 μl of the CellTiter-Glo® Reagent [(Promega)—Cat No. G7572] was added to each well in the 96-well plate. The contents were mixed for 2 minutes on an orbital shaker to induce cell lysis. The plate was then allowed to incubate at room temperature for 10 minutes to stabilize luminescent signal. Luminescence was recorded on BMG PheraStar with luminescence protocol.
as §1, with “IC50” for “IC50 (DC50)”, “Wherein,” for “wherein,”, “software.” for “software. HEK-293 Cell Treatment”

T1 sequence (Q06187 whole entry): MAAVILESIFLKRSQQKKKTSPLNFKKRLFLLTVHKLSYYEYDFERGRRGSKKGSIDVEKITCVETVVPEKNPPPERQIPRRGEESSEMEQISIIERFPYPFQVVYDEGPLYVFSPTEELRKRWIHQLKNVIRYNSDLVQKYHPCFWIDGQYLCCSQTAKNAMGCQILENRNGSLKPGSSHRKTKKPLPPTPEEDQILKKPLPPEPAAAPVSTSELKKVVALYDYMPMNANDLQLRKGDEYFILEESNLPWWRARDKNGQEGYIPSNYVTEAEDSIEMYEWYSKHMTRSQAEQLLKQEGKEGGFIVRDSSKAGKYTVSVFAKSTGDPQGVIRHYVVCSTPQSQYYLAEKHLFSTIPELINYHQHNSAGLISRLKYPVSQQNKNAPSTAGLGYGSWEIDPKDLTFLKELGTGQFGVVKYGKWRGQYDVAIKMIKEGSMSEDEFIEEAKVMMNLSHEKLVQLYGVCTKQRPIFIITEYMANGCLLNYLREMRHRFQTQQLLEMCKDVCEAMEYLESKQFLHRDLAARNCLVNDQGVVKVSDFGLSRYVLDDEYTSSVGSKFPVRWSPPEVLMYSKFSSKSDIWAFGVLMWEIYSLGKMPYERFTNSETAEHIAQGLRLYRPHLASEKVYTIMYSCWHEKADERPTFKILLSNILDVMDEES

Consider `Cc1cc(-c2cc(Nc3ccc(N4CCN(CC5CCN(c6ccc(N7CCC(=O)NC7=O)cc6)CC5)CC4)cc3)ncn2)c(F)cc1[C@@H](C)NC(=O)c1nc(C(C)(C)C)no1` [Example 1, (R)-3-(tert-butyl)-N-(1-(4-(6-((4-(4-((1-(4-(2,4-dioxotetrahydropyrimidin-1(2H)-yl)phenyl)piperidin-4-yl)methyl)piperazin-1-yl)phenyl)amino)pyrimidin-4-yl)-5-fluoro-2-methylphenyl)ethyl)-1,2,4-oxadiazole-5-carboxamide], for which the DC50 on BTK is 21.3 nM. For the same molecule, in the assay with HEK-293 cells, the IC50 was > 10000 nM.
In the same order, the values of `Cc1cc(-c2cc(Nc3ccc(N4CCN(CC5CCN(c6ccc(N7CCC(=O)NC7=O)c(F)c6)CC5)CC4)cc3)ncn2)c(F)cc1[C@@H](C)NC(=O)c1nc(C(C)(C)C)no1` [Example 2, (R)-3-(tert-butyl)-N-(1-(4-(6-((4-(4-((1-(4-(2,4-dioxotetrahydropyrimidin-1(2H)-yl)-3-fluorophenyl)piperidin-4-yl)methyl)piperazin-1-yl)phenyl)amino)pyrimidin-4-yl)-5-fluoro-2-methylphenyl)ethyl)-1,2,4-oxadiazole-5-carboxamide] are 236 nM and > 10000 nM.
For `Cc1cc(-c2cc(Nc3ccc(N4CCN(CC5CCN(c6ccc(N7CCC(=O)NC7=O)cc6F)CC5)CC4)cc3)ncn2)c(F)cc1[C@@H](C)NC(=O)c1nc(C(C)(C)C)no1` [Example 3, (R)-3-(tert-butyl)-N-(1-(4-(6-((4-(4-((1-(4-(2,4-dioxotetrahydropyrimidin-1(2H)-yl)-2-fluorophenyl)piperidin-4-yl)methyl)piperazin-1-yl)phenyl)amino)pyrimidin-4-yl)-5-fluoro-2-methylphenyl)ethyl)-1,2,4-oxadiazole-5-carboxamide], in that order: 104 nM and > 10000 nM.
In the same order, the values of `Cc1cc(-c2cc(Nc3ccc(N4CCN(CCC5CCN(c6ccc(C7CCC(=O)NC7=O)c(F)c6)CC5)CC4)cc3)ncn2)c(F)cc1[C@@H](C)NC(=O)c1nc(C(C)(C)C)no1` (stereo partly drawn) [Example 4, 3-(tert-butyl)-N-((1R)-1-(4-(6-((4-(4-(2-(1-(4-(2,6-dioxopiperidin-3-yl)-3-fluorophenyl)piperidin-4-yl)ethyl)piperazin-1-yl)phenyl)amino)pyrimidin-4-yl)-5-fluoro-2-methylphenyl)ethyl)-1,2,4-oxadiazole-5-carboxamide] are 16.9 nM and > 10000 nM.
With `Cc1cc(-c2cc(Nc3cccc(N4CCN(CC5CCN(c6ccc(N7CCC(=O)NC7=O)cc6)CC5)CC4)c3)ncn2)c(F)cc1[C@@H](C)NC(=O)c1nc(C(C)(C)C)no1` [Example 5, (R)-3-(tert-butyl)-N-(1-(4-(6-((3-(4-((1-(4-(2,4-dioxotetrahydropyrimidin-1(2H)-yl)phenyl)piperidin-4-yl)methyl)piperazin-1-yl)phenyl)amino)pyrimidin-4-yl)-5-fluoro-2-methylphenyl)ethyl)-1,2,4-oxadiazole-5-carboxamide], the IC50 with HEK-293 cells is > 10000 nM.
On to `Cc1cc(-c2cc(Nc3cccc(N4CCN(C5CC(c6ccc(NC7CCC(=O)NC7=O)cc6)C5)CC4)c3)ncn2)c(F)cc1[C@@H](C)NC(=O)c1nc(C(C)(C)C)no1` (stereo partly drawn) [Example 6, 3-(tert-butyl)-N-((1R)-1-(4-(6-((3-(4-(3-(4-((2,6-dioxopiperidin-3-yl)amino)phenyl)cyclobutyl)piperazin-1-yl)phenyl)amino)pyrimidin-4-yl)-5-fluoro-2-methylphenyl)ethyl)-1,2,4-oxadiazole-5-carboxamide], for which half-maximal degradation on BTK (DC50) was put at 48.1 nM. In addition, in the assay on HEK-293 cells, the IC50 was > 10000 nM.
The molecule `Cc1cc(-c2cc(Nc3ccc(N4CCN(CC5CCN(c6ccc(N7CCC(=O)NC7=O)cc6)CC5)CC4)cc3)ncn2)ccc1[C@@H](C)NC(=O)c1nc(C(C)(C)C)no1` [Example 7, (R)-3-(tert-butyl)-N-(1-(4-(6-((4-(4-((1-(4-(2,4-dioxotetrahydropyrimidin-1(2H)-yl)phenyl)piperidin-4-yl)methyl)piperazin-1-yl)phenyl)amino)pyrimidin-4-yl)-2-methylphenyl)ethyl)-1,2,4-oxadiazole-5-carboxamide] showed a DC50 on BTK of 12.8 nM. The IC50 in the assay with HEK-293 cells is > 10000 nM.
For `Cc1cc(-c2cc(Nc3ccc(N4CCN(CC5CCN(c6ccc(N7CCC(=O)NC7=O)cc6)CC5)CC4)cn3)ncn2)c(F)cc1[C@@H](C)NC(=O)c1nc(C(C)(C)C)no1` [Example 8, (R)-3-(tert-butyl)-N-(1-(4-(6-((5-(4-((1-(4-(2,4-dioxotetrahydropyrimidin-1(2H)-yl)phenyl)piperidin-4-yl)methyl)piperazin-1-yl)pyridin-2-yl)amino)pyrimidin-4-yl)-5-fluoro-2-methylphenyl)ethyl)-1,2,4-oxadiazole-5-carboxamide], in that order: 1.48 nM and > 10000 nM.
For `Cc1c([C@@H](C)NC(=O)c2nc(C(C)(C)C)no2)ccc(-c2cc(Nc3ccc(N4CCN(CC5CCN(c6ccc(N7CCC(=O)NC7=O)cc6)CC5)CC4)cn3)ncn2)c1F` [Example 9, (R)-3-(tert-butyl)-N-(1-(4-(6-((5-(4-((1-(4-(2,4-dioxotetrahydropyrimidin-1(2H)-yl)phenyl)piperidin-4-yl)methyl)piperazin-1-yl)pyridin-2-yl)amino)pyrimidin-4-yl)-3-fluoro-2-methylphenyl)ethyl)-1,2,4-oxadiazole-5-carboxamide], in that order: 138 nM and > 10000 nM.
In the same order, the values of `Cc1cc(-c2cc(Nc3ccc(N4CCN(CC5CCN(c6ccc(N7CCC(=O)NC7=O)cc6)CC5)CC4)nc3)ncn2)ccc1[C@@H](C)NC(=O)c1nc(C2(C)CC2)no1` [Example 10, (R)—N-(1-(4-(6-((6-(4-((1-(4-(2,4-dioxotetrahydropyrimidin-1(2H)-yl)phenyl)piperidin-4-yl)methyl)piperazin-1-yl)pyridin-3-yl)amino)pyrimidin-4-yl)-2-methylphenyl)ethyl)-3-(1-methylcyclopropyl)-1,2,4-oxadiazole-5-carboxamide] are 89.5 nM and > 10000 nM.
Molecule `Cc1cc(-c2cc(Nc3ccc(N4CCN(CC5CCN(c6ccc(N7CCC(=O)NC7=O)cc6)CC5)CC4)cn3)ncn2)ccc1[C@@H](C)NC(=O)c1nc(C2(C)CC2)no1` [Example 11, (R)—N-(1-(4-(6-((5-(4-((1-(4-(2,4-dioxotetrahydropyrimidin-1(2H)-yl)phenyl)piperidin-4-yl)methyl)piperazin-1-yl)pyridin-2-yl)amino)pyrimidin-4-yl)-2-methylphenyl)ethyl)-3-(1-methylcyclopropyl)-1,2,4-oxadiazole-5-carboxamide] registered a DC50 on BTK of 1.21 nM. In addition, in the assay on HEK-293 cells, the IC50 was > 10000 nM.
For `Cc1cc(-c2cc(Nc3ccc(N4CCN(C5CN(c6ccc(N7CCC(=O)NC7=O)cc6)C5)CC4)cn3)ncn2)ccc1[C@@H](C)NC(=O)c1nc(C2(C)CC2)no1` [Example 12, (R)—N-(1-(4-(6-((5-(4-(1-(4-(2,4-dioxotetrahydropyrimidin-1(2H)-yl)phenyl)azetidin-3-yl)piperazin-1-yl)pyridin-2-yl)amino)pyrimidin-4-yl)-2-methylphenyl)ethyl)-3-(1-methylcyclopropyl)-1,2,4-oxadiazole-5-carboxamide], in that order: 1.28 nM and > 10000 nM.
With `Cc1cc(-c2cc(Nc3ccc(N4CCN(CCc5cc(F)c([C@H]6CCC(=O)NC6=O)c(F)c5)CC4)cn3)ncn2)ccc1[C@@H](C)NC(=O)c1nc(C(C)(C)C)no1` [Example 46, 3-(tert-butyl)-N—((R)-1-(4-(6-((5-(4-(4-((R)-2,6-dioxopiperidin-3-yl)-3,5-difluorophenethyl)piperazin-1-yl)pyridin-2-yl)amino)pyrimidin-4-yl)-2-methylphenyl)ethyl)-1,2,4-oxadiazole-5-carboxamide], in the assay on HEK-293 cells, the IC50 is > 10000 nM.

The values are drawn from US12521440B2, “Degradation of bruton's tyrosine kinase (BTK) by conjugation of BTK inhibitors with E3 ligase ligand and methods of use” (BeOne Medicines I GmbH, priority 2021, dated 2026).
